Experimental data published in US20020002198A1, “Chemical synergy to elevate growth hormone release in vertebrates” (priority 2000, published 2002).

Legend:
[1] = cited from earlier work
[2] = tested on: mitochondrial maximal energy production; details: pharmacological levels, intravenous, aged animals, within an hour or two; cited from earlier work
[3] = oral ingestion, humans; cited from earlier work
GH release [4] = experiment: Serum GH at 1.5 hours post night time sleep after oral ingestion, antibody capture technique, healthy volunteer; format: in vivo, human; details: for Augmentation of GH release at 1.5 hours post sleep (in words): oral at night sleep
Experimental: Measurements of GH release occurring at 1.5 hours post sleep were performed on serum samples from a healthy volunteer. Controls and serum analysis for GH were measured by standard commercially avialable antibody capture technique. Experiments and measurement of results occurred between June and October 2000. Each single night experimental serum collection was separated from any other experiments by 1 week. All determinations represent averaged value of triple determinations. […] Measurements were each performed on serum collected 1.5 hours post night time sleep. Choice of 1.5 hours post sleep represents one complete sleep cycle with slow wave sleep during which GH is released. Oral ingestions of stated substances occurred just before night sleep. The normal range of serum GH at 1.5 hours post sleep is in the 1-10 nanograms per milliliter (ng/ml) range. The variance in measurement precision is given by the second value. All experiments were preceded by a period of 3-4 hours since the last meal.

GH release [5] = details: cited from earlier work
[6] = in vivo; cited from earlier work

## CC(=O)O[C@H](CC(=O)[O-])C[N+](C)(C)C [Acetyl-l-carnitine, acetyl-l-carnitine]
[1]; 2.5-7 grams per day, Alzheimer's disease treatment
  Safety in long human testing (in words): without reported negative consequences
[1]; comparable to normal nutritional amino acids
  Toxicity sets in at: about 1 % of body weight
[2]
  Restoration of mitochondrial maximal energy production (in words): restore mitochondrial maximal energy production to youthful levels
[3]
  Maximal immediately absorbed dose: 500 to 2000 milligrams
GH release [4]; 500 mg of the single substance alone, oral at sleep, 1.5 hour post sleep serum collection, 3-4 hours after last meal, control […] ± 0.2
  Measured GH: 0.55 ± 0.1 ng/mL
GH release [4]
  Augmentation of GH release at 1.5 hours post sleep (in words): absence of effect

## N=C(N)NCCC[C@H](N)C(=O)O [l-arginine]
GH release [5]
  Lowest oral dose that augmented normal night time GH release: greater than 3 grams
GH release [5]; oral, alone, doses of up to 6 gram at night
  Elevation of growth hormone secretion (in words): does not elevate growth hormone secretion

## NCCC[C@H](N)C(=O)O [l-ornithine]
GH release [4]
  Augmentation of GH release at 1.5 hours post sleep (in words): absence of effect

## NCCCCN [putrescine]
[6]
  Toxicity when administered systematically (in words): considerably less toxic

## NCCCCNCCCN [spermidine]
[6]
  Toxicity when administered systematically (in words): considerably less toxic

## NCCCNCCCCNCCCN [spermine]
[6]
  Toxicity when administered systematically (in words): significant toxicity
